From patent US20030232101A1, “Topical formulations of resorcinols and cannibinoids and methods of use” (Immugen Pharmaceuticals, Inc., priority 2002, published 2003) come the findings set out here.

SMILES strings stand for the structures. Values after ≈ are worked out from the molar mass of the structure shown. Read-outs that look alike come from different tables or passages of the source.

Broadly, the IC50 is the point on the concentration scale where inhibition reaches its midpoint.

One series has as its system HIV-1 strain RoJo. Nature of the series: PBMC time of addition assay (RT activity in supernatant at 6 days). The series is classed as cell-based. The note with it: for IC50: read-out: IC50. The source says: (§1) Human peripheral blood mononuclear cells (PBMCs) from a minimum of 2 donors, that have been blasted with PHA and IL-2, were counted, viability determined by Trypan Blue dye exclusion and mixed in equal ratios. Pooled donors were used to minimize the variability observed between individual donors which results from quantitative and qualitative differences in HIV infection and overall response to the PHA and IL-2 of primary lymphocyte populations. The cells were resuspended at 1×10^6 cells /mL in RPMI 1640 without phenol red supplemented with 15% Fetal Bovine Serum (heat inactivated), 2 mM L-glutamine, 100 U/mL penicillin, 100 μg/mL streptomycin, 10 μg/mL gentamycin and IL-2 (20 U/mL, R&D Systems, Minneapolis, Minn.). Fifty microliters of cells were then distributed to the inner 60 wells of a 96 well round bottom microtiter culture plate in a standard format developed by the Infectious Disease Research department of Southern Research Institute. Each plate contains cell control wells (cells only), virus control wells (cells plus virus), and experimental wells (drug plus cells plus virus). Alternatively, cells were cultured in T25 cm^2 or T75 cm^2 tissue culture flasks at a starting density of 1×10^6 cells per ml. Serially diluted compounds were added to the microtiter plate or tissue culture flask followed by the appropriate pre-titered strain of HIV-1. For virus replication inhibition experiments the HIV-1 strain RoJo was used. This is a low passage presumable subtype B pediatric isolate with a syncytium inducing (SI) phenotype in MT-2 cells isolated by Southern Research Institute personnel. All samples were assayed in triplicate where possible with an accompanying determination of compound toxicity. The final volume per well in the microtiter plates was 200 μL. The final volume in the tissue culture flask varied depending upon experimental design and flask size. Assays were incubated for 6 days in a humidified atmosphere at 37° C., 5% CO^2, after which supernatants were collected, for analysis of RT activity and cell viability by MTS dye reduction. Culture were also examined microscopically, any abnormalities noted, and in the case of tissue culture flasks cell counts and viability determined by Trypan Blue Dye exclusion.
(§2) Time of addition assays were performed with PBMCs in two ways. For both assays, PBMCs were isolated and cultured under the conditions as described above. Time of addition assays were carried out in either a tissue culture flask format (T-75 cm^2) or in microtiter wells. In both cases due to the lack of plastic adherence and heterogeneity of the PBMC population for susceptibility to infection, it was not possible to use complete removal of virus following a timed adsorption to synchronize the infection and limit the assay to a single round of infection. Therefore, serial washing by partial removal of the media was used to reduce the concentration of virus and compound (if required) in the assay. Compound addition in relationship to antiviral activity was either assessed over a short addition interval immediately before or after virus addition or for up to 72 h post infection. For all assays virus replication was assessed at 6 days of culture by determining RT expression in cell-free supernatants. In the tissue culture flask format cells were counted and Trypan Blue Dye exclusion used to monitor compound cytotoxicity. Cell viability in the 96 well microtiter plate format was determined by MTS dye reduction. AZT was used as a positive control.
Reverse transcriptase activity was measured in cell-free supernatants. Tritiated thymidine triphosphate (NEN) (TTP) was resuspended in distilled H2O at 5 Ci/mL. Poly rA and oligo dT were prepared as a stock solution which was kept at −20° C. The RT reaction buffer was prepared fresh on a daily basis and consists of 125 μL 1.0 M EGTA, 125 μL dH2O, 110 μL 10% SDS, 50 μL 1.0 M Tris (pH 7.4), 50 μL 1.0 M DTT, and 40 μL 1.0 M MgCl2. […]

The subject of series [1] is peripheral blood mononuclear cells (PBMCs). Briefly: PBMC cell viability in time of addition assay (MTS / Trypan Blue). Format: cell-based, Human. Particulars: read-out: TC50 (the source's name).
Source text: as §1, §2
At assay termination the assay plates were stained with the soluble tetrazolium-based dye MTS (CellTiter96® Reagent Promega) to determine cell viability and quantify compound toxicity. MTS is metabolized by the mitochondria enzymes of metabolically active cells to a soluble formazan product, allowing the rapid quantitative analysis cell viability and compound cytotoxicity. […] At termination of the assay 20 μL of MTS reagent was added per well and incubated for 4 h at 37° C. […]

The subject of the next series is IIIB strain of HIV-1. Briefly: Virus attachment assay, HeLa CD4 LTR β-gal cells (Experimental Example 2). Format: cell-based. How it is done:
(§3) This assay detects compounds that block virus attachment using HeLa CD4 LTR β-gal cells. HeLa CD4 LTR β-gal cells were cultured with selection antibiotics. Twenty-four h prior to initiation of the assay, the cells were trypsinized, counted and plated in a 0.2 cm well in media without selection antibiotics. At 24 h media is removed and compound in media placed on the cells and incubated for 15 min at 37° C. A known titer of the IIIB strain of HIV-1 was then added to the wells and the incubation continued for 1 to 2 h. At the end of the incubation the wells were washed 2 times with media and the culture continued for 40 to 48 h. At termination of the assay, media is removed and β-galactosidase enzyme expression determined by chemiluminescence per manufacturer's instructions (Tropix Gal-screen, Bedford Mass.). Compound toxicity is monitored on a sister plate by XTT or MTS dye reduction. All determinations are performed in triplicate with serial_Log10 dilution of the test materials.

The subject of another series is HIV-1. Briefly: HeLa CD4 LTR β-gal HIV-1 attachment assay (Experimental Example 1). The series is classed as cell-based. The note with it: Human immunodeficiency virus 1, HeLa.
Series [2] deals with HeLa CD4 LTR β-gal cells. Briefly: Compound toxicity in the attachment assay, sister plates, MTS dye reduction. The series is classed as cell-based. Here is the method: (§4) At assay termination the assay plates were stained with the soluble tetrazolium-based dye MTS (CellTiter96® Reagent Promega) to determine cell viability and quantify compound toxicity. MTS is metabolized by the mitochondria enzymes of metabolically active cells to a soluble formazan product, allowing the rapid quantitative analysis cell viability and compound cytotoxicity. […] At termination of the assay 20 μL of MTS reagent was added per well and incubated for 4 h at 37° C. Adhesive plate sealers were used in place of the lids, the sealed plate was inverted several times to mix the soluble formazan product and the plate was read spectrophotometrically at 490 nm with a Molecular Devices Vmax plate reader.
The attachment assay was performed with the HeLa CD4 LTR β-gal cells available from the AIDS Research and Reference Reagent Repository. […] HeLa CD4 LTR β-gal cells express cell surface CD4 and contain an LTR β-galactosidase reporter construct. Upon infection either the Tat protein incorporated into the virion or new Tat produced following virus integration and transcription trans-activates the LTR β-gal reporter, leading to expression of the β-galactosidase enzyme. HeLa CD4 LTR β-gal cells are routinely cultured with the required selection antibiotics and screened for mycoplasma contamination. Twenty-four h prior to initiation of the assay cells were trypsinized, counted and 1×10^4 cells placed in a 0.2 cm well in media without selection antibiotics. […] A known titer of virus was then added to the wells and the incubation continued for 1 h. At the end of the incubation the wells were washed 6 times with media and the culture continued for 48 h. At 48 h the wells were washed one time with PBS and β-galactosidase enzyme expression determined by chemiluminescence per manufacturers instructions (Tropix Gal-screen™, Tropix, Bedford, Mass.). Compound toxicity was monitored on sister plates using MTS dye reduction.
(In general: Formazan colour is commonly taken as a measure of viable cells.)

In series [3] the test system is interaction of HIV gp 120 with CD4 (HeLa CD4 LTR β-gal / HL2/3 cell fusion). Nature of the series: HeLa CD4 LTR β-gal/HL2/3 HIV-1 fusion assay (Experimental Example 1). Format: cell-based. The note with it: Human immunodeficiency virus 1, HeLa, 48 h, read-out: Antiviral Activity IC50. From the text: This assay uses the HeLa CD4 LTR β-gal and HL2-3 cells available from the AIDS Research and Reference Reagent Repository. The fusion assay utilizes HeLa CD4 LTR β-gal cells with HL2/3 cells as a fusion partner via the interaction of HIV gp 120 with CD4. HL2/3 cells express HIV-1 Env on their cell surface and contain an HIV-1 Tat expression cassette. Upon syncytium formation and plasma membrane fusion, cytoplasmic mixing of the HL2/3 and HeLa CD4 LTR b-gal cell contents results in the transactivation of the LTR and β-Galactosidase expression is then directly related to […] cell membrane fusion. Thus, these two mechanistic assays can be used to confirm and identify a virus entry-based target of the compound. Additionally, because the attachment assay uses cell-free virus this assay can be used to show applicability to cell-free virus transmission.
(§5) Twenty-four h prior to initiation of the assay cells were trypsinized, counted and 5×10^3 cells placed in a 0.2 cm well in media without selection antibiotics. To initiate the fusion assay HeLa CD4 LTR β-gal (5×10^3 cells per 0.2 cm well) were incubated with compound for 1 h at 37° C. HL2/3 cells (5×10^3) were added to the 0.2 cm well and the incubation continued for 48 h. At 48 h the wells were washed 1 time with PBS and β-galactosidase enzyme expression determined by chemiluminescence per manufacturers instructions (Tropix Gal-screen™, Tropix, Bedford, Mass.). Compound toxicity was monitored on sister plates using MTS dye reduction.
In addition to assessing inhibition of attachment with HeLa CD4 LTR β-gal cells a virus fusion assay was perfoed using HeLa CD4 LTR β-gal and HL2/3 cells. No timed addition of compound was employed, but rather the assay was performed to verify the effects of the compounds on the HeLa CD4 LTR β-gal cells β-galactosidase expression.

The test system of series [4] is HeLa CD4 LTR β-gal cells. Nature of the series: Compound toxicity in the fusion assay, sister plates, MTS dye reduction. The series is classed as cell-based. Particulars: no timed addition; 48 h. How it is done:
as §4, §5

Series [5] concerns HeLa CD4 LTR β-gal cells. Nature of the series: Compound toxicity in the attachment assay, sister plate, XTT or MTS (Example 2). The series is classed as cell-based. Here is the method:
as §3, with “materials. The virus adsorption interval of 1 to 2 h was sufficiently short that AZT, which requires phosphorylation to achieve its active tri-phosphate form (AZT-TTP), is not active in this assay.” for “materials.”

In series [6] the test system is cell-to-cell fusion mediated by HIV-1 Env and CD4. Nature of the series: Fusion assay, HeLa CD4 LTR β-gal and HL2/3 cells (Experimental Example 2). The series is classed as cell-based. Particulars: Human immunodeficiency virus 1, HL2/3, read-out: Fusion Assay IC50. How it is done: (§6) The fusion assay assesses the ability of compounds to block cell-to-cell fusion mediated by HIV-1 Env and CD4 expressed on separate cells. This assay is sensitive to inhibitors of both the gp 120/CD4 interaction and inhibitors of the X4 coreceptor. HeLa CD4 LTR β-gal cells were plated in microtiter wells and diluted compounds are added and allowed to incubate at 37° C. for 1 hr prior to the addition of HL2/3 cells. The incubation was then continued for 40 to 48 h, after which fusion is monitored by measurement of β-galactosidase enzyme expression, detectable by chemiluminescence (Tropix Gal-screen, Tropix, Bedford, Mass.). Compound toxicity is monitored on a sister plate using XTT or MTS dye reduction. All determinations are performed in triplicate with serial_Log10 dilution of the test materials.

The subject of series [7] is HeLa CD4 LTR β-gal cells. Briefly: Compound toxicity in the fusion assay, sister plate, XTT or MTS (Example 2). Format: cell-based. How it is done: as §6

With `Cc1cn([C@H]2C[C@H](N=[N+]=[N-])[C@@H](CO)O2)c(=O)[nH]c1=O` [AZT, reference compound], in the series on HIV-1 strain RoJo (4 h preincubation), the enhancement of activity is 4.6 fold. Moreover, the IC50 in the series on HIV-1 strain RoJo (addition prior to infection, pre-treatment 0 h) is 1 nM; in the series on HIV-1 strain RoJo (addition prior to infection, pre-treatment 2 h), 1 nM; in the series with HIV-1 strain RoJo (addition prior to infection, pre-treatment 4 h), 1 nM; with HIV-1 strain RoJo (addition prior to infection, pre-treatment 24 h), 3 nM; with HIV-1 strain RoJo (treatment 6 h post) it was 4.6 nM; with HIV-1 strain RoJo (treatment at infection), 3.7 nM. Further, the IC50 with HIV-1 strain RoJo (treatment −4 h pre) came out at 0.8 nM. Moreover, the CC50 in series [1] (treatment 6 h post), in series [1] (treatment at infection) and in series [1] (treatment −4 h pre) was above 4000 nM each time. Moreover, the “activity in virus attachment assay” value with IIIB strain of HIV-1 (virus adsorption interval 1 to 2 h) is given as “not active”.
On to `COc1cc(-c2ccc(/N=N/c3ccc4c(S(=O)(=O)O)cc(S(=O)(=O)O)c(N)c4c3O)c(OC)c2)ccc1/N=N/c1ccc2c(S(=O)(=O)O)cc(S(=O)(=O)O)c(N)c2c1O` [CSB, Chicago Sky Blue, reference compound], for which the IC50 is 1.1 µg/mL (≈ 1.22 µM) with HIV-1 (Experiment 1, pretreat 0 h); 1.71 µg/mL (≈ 1.89 µM) in the series with HIV-1 (Experiment 1, pretreat 4 h); 1.3 µg/mL (≈ 1.44 µM) with HIV-1 (Experiment 1, pretreat 24 h); 0.17 µg/mL (≈ 0.188 µM) in the series on HIV-1 (Experiment 2, pretreat 0 h); 2.11 µg/mL (≈ 2.33 µM) in the series with HIV-1 (Experiment 2, pretreat 4 h); 4.7 µg/mL (≈ 5.19 µM) with HIV-1 (Experiment 2, pretreat 24 h). In addition, the IC50 in series [3] was found to be 1.75 µg/mL (≈ 1.93 µM); in the series on IIIB strain of HIV-1 (Human immunodeficiency virus 1, IIIB, HeLa, read-out: Attachment Assay IC50) it was 0.63 µg/mL (≈ 0.696 µM); in series [6], 0.41 µg/mL (≈ 0.453 µM). The TC50 was above 10 µg/mL with HeLa CD4 LTR β-gal cells [2] (Experiment 1, pretreat 0 h); above 10 µg/mL in the series on HeLa CD4 LTR β-gal cells [2] (Experiment 1, pretreat 4 h); above 10 µg/mL in the series on HeLa CD4 LTR β-gal cells [2] (Experiment 1, pretreat 24 h); above 10 µg/mL with HeLa CD4 LTR β-gal cells [2] (Experiment 2, pretreat 0 h); above 10 µg/mL with HeLa CD4 LTR β-gal cells [2] (Experiment 2, pretreat 4 h); above 10 µg/mL in the series with HeLa CD4 LTR β-gal cells [2] (Experiment 2, pretreat 24 h). In the series on HeLa CD4 LTR β-gal cells [4], this compound registered a TC50 above 10 µg/mL. The “Attachment Assay TC50” value in the series with HeLa CD4 LTR β-gal cells [5] is above 10 µg/mL. Moreover, in the series on HeLa CD4 LTR β-gal cells [7], the “Fusion Assay TC50” value was above 100 µg/mL.
